Assay type in all cases: cell-based
A short description of one data set: MTT cell viability assay. To be noted: human, MTT, 24 h, concentration required to inhibit cell proliferation by 50%, mean ± SD. How it is done:
(§1) The cytotoxic effect of coumarins 2a–k was tested on several cancer and normal cell lines: lung cancer cell line (SK-MES-1), thyroid cancer cell lines (K-1; B-CPAP ant TPC-1), lung fibroblast (MRC-5) and thyroid normal cell line (Nthy-ori-3-1) by MTT (3-[4,5-dimethylthiazol-2-yl]-2,5 diphenyltetrazolium bromide) assay.
(§2) The papillary thyroid carcinoma (PTC)-derived cell lines (TPC-1 and B-CPAP) were kindly provided by Dr. Fusco (Medical School, University Federico II of Naples, Naples, Italy). K-1 PTC-derived cell line and non-tumorigenic thyroid Nthy-ori-3-1 cell line were purchased from Health Protection Agency Culture Collections. The PTC-derived cell lines were maintained in DMEM/F12 (Gibco-BRL. Life Technologies, Milan, Italy)] supplemented with 10% fetal bovine serum (Gibco-BRL) at 37 °C in humidified 5% CO2. SK-MES-1 and MRC-5 were purchased from American Type Culture Collection (ATCC) and were maintained in Mem-E medium, supplemented with 10% fetal bovine serum, 100 units/mL penicillin G, and 100 μg/mL streptomycin (Gibco-BRL) at 37 °C in humidified 5% CO2.
(§3) The effect of test compounds on the viability of cells was detected by MTT assay. The thyroid cells (7.5 × 10^3 cells/mL), SK-MES-1, and MRC-5 (8 × 10^4 cells/mL) were seeded into a 96-well plate and allowed to adhere for 16 h to culture plates before the addition of the compounds.
(§4) Then, compounds were added at different concentrations (0.8–100 μM), and cells were further incubated for 24 h. Cells with no treatment were used as a negative control. After incubation, cells were treated with MTT solution for 3 h at 37 °C. Then, the MTT solution was removed, and 150 µL of DMSO was added to the wells. The absorbances were measured at 570 nm using a TECAN microplate reader (Infinite 200, Tecan, Salzburg, Austria). Viability data were reported as % of control (untreated cells) for each cell line.

Data set [1] concerns B-CPAP thyroid cancer cell line. Description: MTT cell viability assay. Here is the method:
as §1, §2, §3, §4

Data set [2] deals with K-1 thyroid cancer cell line. Description: MTT cell viability assay. How it is done: as §1, §2, §3, §4
In data set [3] the test system is SK-MES-1 lung cancer cell line. Put plainly: MTT cell viability assay. Here is the method:
as §1, §2, §3, §4

The test system of data set [4] is TPC-1 thyroid cancer cell line. Put plainly: MTT cell viability assay. How it is done:
as §1, §2, §3, §4

The subject of another data set is MRC-5 lung fibroblast. Description: MTT cell viability assay. How it is done:
as §1, §2, §3, §4

For data set [5], the system named is Nthy-ori-3-1 thyroid normal cell line. Description: MTT cell viability assay. How it is done: as §1, §2, §3, §4
Setting [6] is: Nthy-ori-3-1 normal thyroid cells, Nthy-ori-3-1.
Setting [7] is: Homo sapiens, BCPAP, B-CPAP, MTT, 24 h, concentration required to inhibit cell proliferation by 50%, mean ± SD, read-out: CC50.
[8] abbreviates: K-1, MTT, 24 h, concentration required to inhibit cell proliferation by 50%, mean ± SD, read-out: CC50.
[9] abbreviates: Homo sapiens, SK-MES-1, MTT, 24 h, concentration required to inhibit cell proliferation by 50%, mean ± SD, read-out: CC50.
Where [10] appears, read: Homo sapiens, TPC1, TPC-1, MTT, 24 h, concentration required to inhibit cell proliferation by 50%, mean ± SD, read-out: CC50.

Read-outs that look alike come from different tables or passages of the source.

`N#Cc1cc2cc(F)ccc2oc1=O` [2a, 6-Fluoro-2-oxo-2H-chromene-3-carbonitrile]: the CC50 at 24 h was over 100 µM in “MTT cell viability assay” (MRC-5 lung fibroblasts, MRC-5) and over 100 µM in the data set “MTT cell viability assay” (setting [6]). Also, the CC50 in data set [1] (setting [7]), in data set [2] (setting [8]), in data set [3] (setting [9]) and in data set [4] (setting [10]) was over 100 µM in each case.
Take `N#Cc1cc2cc(Cl)ccc2oc1=O` [2c, 6-Chloro-2-oxo-2H-chromene-3-carbonitrile]: the CC50 at 24 h in “MTT cell viability assay” (MRC-5 lung fibroblasts, MRC-5) was over 100 µM; in “MTT cell viability assay” (setting [6]), over 100 µM. Further, the half-maximal cytotoxic concentration (CC50) in data set [1] (setting [7]), in data set [2] (setting [8]), in data set [3] (setting [9]) and in data set [4] (setting [10]) was over 100 µM each time.
`CCOC(=O)c1cc2cc(Br)ccc2oc1=O` [2d, Ethyl 6-bromo-2-oxo-2H-chromene-3-carboxylate]: the CC50 at 24 h in the data set “MTT cell viability assay” (MRC-5 lung fibroblasts, MRC-5) was over 100 µM; in the data set “MTT cell viability assay” (setting [6]) it was over 100 µM. For the same compound, the CC50 in data set [1] (setting [7]), in data set [2] (setting [8]), in data set [3] (setting [9]) and in data set [4] (setting [10]) was over 100 µM throughout.
As to `N#Cc1cc2cc(Br)ccc2oc1=O` [2e, 6-Bromo-2-oxo-2H-chromene-3-carbonitrile], the half-maximal cytotoxic concentration (CC50) at 24 h in “MTT cell viability assay” (MRC-5 lung fibroblasts, MRC-5) was over 100 µM; in the data set “MTT cell viability assay” (setting [6]), over 100 µM. Moreover, the 50% cytotoxic concentration (CC50) in data set [1] (setting [7]), in data set [2] (setting [8]), in data set [3] (setting [9]) and in data set [4] (setting [10]) was over 100 µM each time.
As to `CS(=O)(=O)c1cc2cc(Br)ccc2oc1=O` [2f, 6-Bromo-3-(methylsulfonyl)-2H-chromen-2-one], the half-maximal cytotoxic concentration (CC50) at 24 h in the data set “MTT cell viability assay” (MRC-5 lung fibroblasts, MRC-5) is over 100 µM; in the data set “MTT cell viability assay” (setting [6]), over 100 µM. The CC50 in data set [1] (setting [7]), in data set [2] (setting [8]), in data set [3] (setting [9]) and in data set [4] (setting [10]) was over 100 µM each time.
`CCOC(=O)c1cc2cc(Br)cc(Br)c2oc1=O` [2g, Ethyl 6,8-dibromo-2-oxo-2H-chromene-3-carboxylate]: the CC50 at 24 h in the data set “MTT cell viability assay” (MRC-5 lung fibroblasts, MRC-5) was over 100 µM; in “MTT cell viability assay” (setting [6]), over 100 µM. The cytotoxic concentration (CC50) in data set [1] (setting [7]), in data set [2] (setting [8]), in data set [3] (setting [9]) and in data set [4] (setting [10]) was over 100 µM each time.
Regarding `CCOC(=O)c1cc2cc(I)cc(I)c2oc1=O` [2i, Ethyl 6,8-diiodo-2-oxo-2H-chromene-3-carboxylate], the CC50 at 24 h in “MTT cell viability assay” (MRC-5 lung fibroblasts, MRC-5) was over 100 µM; in the data set “MTT cell viability assay” (setting [6]) it was over 100 µM. The CC50 in data set [1] (setting [7]), in data set [2] (setting [8]), in data set [3] (setting [9]) and in data set [4] (setting [10]) was over 100 µM in each case.
`O=C(O)c1cc2cc(I)cc(I)c2oc1=O` [2j, 6,8-diiodo-2-oxo-2H-chromene-3-carboxylic Acid]: the CC50 at 24 h in the data set “MTT cell viability assay” (MRC-5 lung fibroblasts, MRC-5) was over 100 µM; in “MTT cell viability assay” (setting [6]) it was over 100 µM. The cytotoxic concentration (CC50) in data set [1] (setting [7]), in data set [2] (setting [8]), in data set [3] (setting [9]) and in data set [4] (setting [10]) was over 100 µM throughout.
As for `CC[C@@]1(O)C(=O)OCc2c1cc1n(c2=O)Cc2cc3ccccc3nc2-1` [Camptothecin, reference compound], the CC50 at 24 h in the data set “MTT cell viability assay” (MRC-5 lung fibroblasts, MRC-5) came to 0.1 ± 0.03 µM; in the data set “MTT cell viability assay” (setting [6]) it was 0.01 ± 0.02 µM. For the same compound, the results for the 50% cytotoxic concentration (CC50) in data set [1] (setting [7]), in data set [3] (setting [9]) and in data set [4] (setting [10]) were 0.03 µM, 0.017 ± 0.003 µM and 0.01 ± 0.02 µM, respectively.
With “Ethyl 6-fluoro-2-oxo-2H-chromene-3-carboxylate [2b]”, the half-maximal cytotoxic concentration (CC50) (in data set [1]; in data set [2]; in the data set on MRC-5 lung fibroblast; in data set [5]; in data set [3]; in data set [4]) was over 100 µM each time.

The values above are taken from publication PMC9786284, “Synthesis and Antiproliferative Effect of Halogenated Coumarin Derivatives” (Molecules, 2022).
